Key:
Taq polymerase = target: T1, Taq polymerase (Thermus aquaticus, UniProt P19821); test: Taq polymerase inhibition by Taqman real time PCR (gene amplification, CT values); type: biochemical; details: for Taq polymerase activity / 18S amplification: spiked into heparin and treated with heparinase; for 18S amplification: same conditions; for gene amplification (polymerase activity) after treatment with heparinase: heparinase 2 hours at room temperature, OS-CS 30 ng, heparin 25 mU of lot C1 (FIG. 2B)
T1 construct: purchased ABI (Applied Biosystems)
Method: Heparinase treatment: Heparin was treated with heparinase I (1:1 unit:unit reaction unless otherwise noted) for 2 hours at 25° C. in a buffer containing 4 mM Tris-HCl pH 7.5, 0.8 mM CaCl, 10 mM NaCl, and 20 U of RNase inhibitor (ABI). After treatment, the heparin was diluted to a final volume of 50 μl and serial dilutions were prepared in DEPC water as specified. Where indicated, other GAGs and oversulfated GAGs (dermatan sulfate, chondroitin sulfate, and heparan sulfate) were treated with heparinase under the same conditions as described above.
Screening Assay: cDNA was generated using total RNA from MDA-MB-231 human breast cancer cell line extracted using Trizol reagent (Invitrogen, Carlsbad, Calif.) as per manufacturer's instructions. For each cDNA reaction 1 μg total RNA was reverse transcribed using High Capacity cDNA Reverse Transcription Kit (Applied Biosystems, Foster City Calif.) in a volume of 20 μl and further diluted in DEPC water to 100 μl final volume. The concentration of cDNA was determined using Quant-iT OliGreen ssDNA Reagent (Invitrogen). For each Taqman® reaction, 25 ng of cDNA in a 2.5 μl volume were mixed with 2.5 μl of each dilution of heparinase-treated heparin or hypersulfated GAGs and then subjected to real time PCR using Taqman® Gene Expression assay for human 18S rRNA (20×) and 2× Universal PCR master mix (ABI) in a 25 μl reaction. Amplification levels of 18S are expressed as CT values. CT values represent the cycle at which amplification of a target gene is first detected. The amplification was analyzed using manual settings with a threshold value of 0.1 and the SDS2.3 software from ABI. […] Quantification of the oversulfated GAGs was performed by establishing a cutoff at the minimum concentration of synthetic OS-CS that completely blocks Taq polymerase (500 pg) and tittering all the samples until the activity of Taq polymerase was restored.
Real time-PCR (Taqman® PCR) is a highly sensitive method for detecting changes in gene expression. Gene amplification depends on a thermostable DNA polymerase from Thermus aquaticus (Taq pol). […] Shown in FIG. 1 are the levels of 18S amplification from 25 ng cDNA derived from MDA-MB-231 cells as determined by Taqman® PCR. While the 18S rRNA is used here, any RNA or DNA template is suitable. Addition of progressively higher amounts of heparin induces a corresponding reduction in Taq polymerase activity that can be monitored by assessing 18S cDNA amplification. […] Treatment of heparin with 1 unit of heparinase for 2 hrs at 25° C. overcomes the blocking activity of up to 50 mU of heparin (FIG. 1A).
To compare the use of different template sequences to measure the inhibition of Taq polymerase activity by oversulfated GAGs, heparin preparations were processed and RNA was isolated as detailed in Example 1, except that cDNAs were generated and amplified from the Actin B and GAPDH RNA sequences, in addition to the 18S rRNA.
Table 1 compares the effects of different oversulfated GAGs on the amplification of 18S, Actin B, and GAPDH sequences by Taq polymerase, as shown by mean cycle thresholds (CT) of amplification detection. The CT value indicating no inhibition of Taq polymerase activity varied slightly by template, but was maximally <20. […] Addition of progressively higher amounts of over sulfated chondroitin sulfate (OS-CS), oversulfated dermatan sulfate (OS-DS), and oversulfated heparan sulfate (OS-HS) to cDNA induced a corresponding reduction in Taq polymerase amplification of 18S, Actin B, and GAPDH.

porcine model = details: 5 mg/kg i.v. in bolus; cited from earlier work
[1] = any concentration tested (0-125 ng)

T1 sequence (P19821 whole entry): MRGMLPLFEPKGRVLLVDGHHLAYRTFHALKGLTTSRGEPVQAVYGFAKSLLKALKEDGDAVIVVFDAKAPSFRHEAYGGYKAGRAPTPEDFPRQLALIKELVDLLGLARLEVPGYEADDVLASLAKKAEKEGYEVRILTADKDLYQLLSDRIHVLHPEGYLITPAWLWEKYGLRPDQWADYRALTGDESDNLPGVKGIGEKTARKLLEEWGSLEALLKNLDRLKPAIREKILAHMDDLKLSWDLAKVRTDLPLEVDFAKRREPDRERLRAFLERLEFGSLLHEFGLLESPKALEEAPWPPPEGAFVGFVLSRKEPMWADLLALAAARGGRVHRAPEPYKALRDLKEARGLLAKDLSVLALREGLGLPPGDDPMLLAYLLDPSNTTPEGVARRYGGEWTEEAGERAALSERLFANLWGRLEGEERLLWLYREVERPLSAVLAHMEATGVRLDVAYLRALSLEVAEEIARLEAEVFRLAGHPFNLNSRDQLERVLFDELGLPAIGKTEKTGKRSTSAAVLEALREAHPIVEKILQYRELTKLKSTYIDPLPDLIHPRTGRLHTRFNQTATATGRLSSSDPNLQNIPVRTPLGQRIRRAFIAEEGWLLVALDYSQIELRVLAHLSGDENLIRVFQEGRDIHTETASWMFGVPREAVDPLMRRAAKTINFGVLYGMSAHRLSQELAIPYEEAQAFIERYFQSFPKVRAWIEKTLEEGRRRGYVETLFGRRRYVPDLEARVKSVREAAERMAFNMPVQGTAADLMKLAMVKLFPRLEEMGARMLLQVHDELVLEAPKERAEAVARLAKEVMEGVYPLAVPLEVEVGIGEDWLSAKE

dermatan sulfate [DS]
Taq polymerase activity (Taq polymerase; [1]): did not inhibit

Chondroitin sulfate E [CS-E]
Taq polymerase activity (Taq polymerase; highest concentration tested (125 ng)): trace of inhibitory effect

Chondroitin sulfate type A [CS-A]
Taq polymerase activity (Taq polymerase; [1]): did not inhibit

oversulfated heparan sulfate [OS-HS]
mean cycle threshold (CT) of amplification detection (Taq polymerase; 18S template, 0.3 ng): 14.49
mean cycle threshold (CT) of amplification detection (Taq polymerase; 18S template, 0.9 ng): 26.00
mean cycle threshold (CT) of amplification detection (Taq polymerase; 18S template, 2.7 ng): 40.00
mean cycle threshold (CT) of amplification detection (Taq polymerase; 18S template, 8.3 ng): 40.00
mean cycle threshold (CT) of amplification detection (Taq polymerase; 18S template, 25 ng): 40.00
mean cycle threshold (CT) of amplification detection (Taq polymerase; Actin B template, 0.3 ng): 27.12
mean cycle threshold (CT) of amplification detection (Taq polymerase; Actin B template, 0.9 ng): 40.00
mean cycle threshold (CT) of amplification detection (Taq polymerase; Actin B template, 2.7 ng): 40.00
mean cycle threshold (CT) of amplification detection (Taq polymerase; Actin B template, 8.3 ng): 40.00
mean cycle threshold (CT) of amplification detection (Taq polymerase; GAPDH template, 0.3 ng): 25.98
mean cycle threshold (CT) of amplification detection (Taq polymerase; GAPDH template, 0.9 ng): 40.00
mean cycle threshold (CT) of amplification detection (Taq polymerase; GAPDH template, 2.7 ng): 40.00
mean cycle threshold (CT) of amplification detection (Taq polymerase; GAPDH template, 8.3 ng): 40.00
mean cycle threshold (CT) of amplification detection (Taq polymerase; GAPDH template, 25 ng): 40.00
18S amplification (Taq polymerase): significantly reduced

Heparan sulfate [HS]
mean cycle threshold (CT) of amplification detection (Taq polymerase; 18S template, 8.3 ng): 13.62
mean cycle threshold (CT) of amplification detection (Taq polymerase; 18S template, 25 ng): 13.66
mean cycle threshold (CT) of amplification detection (Taq polymerase; 18S template, 62.5 ng): 13.69
mean cycle threshold (CT) of amplification detection (Taq polymerase; 18S template, 125 ng): 13.96
mean cycle threshold (CT) of amplification detection (Taq polymerase; 18S template, 250 ng): 14.36
mean cycle threshold (CT) of amplification detection (Taq polymerase; Actin B template, 25 ng): 18.36
mean cycle threshold (CT) of amplification detection (Taq polymerase; GAPDH template, 8.3 ng): 17.68
mean cycle threshold (CT) of amplification detection (Taq polymerase; GAPDH template, 25 ng): 18.37
Taq polymerase amplification of any of the tested templates (18S, Actin B, GAPDH) (Taq polymerase; at comparable concentrations): did not inhibit
Taq polymerase activity (Taq polymerase; [1]): did not inhibit

oversulfated chondroitin sulfate [OS-CS]
amount that completely blocked Taq polymerase mediated 18S cDNA amplification (Taq polymerase; 18S template, 25 ng cDNA (FIG. 1C)): 500 pg
mean cycle threshold (CT) of amplification detection (Taq polymerase; 18S template, 0.08 ng added to cDNA): 13.81
mean cycle threshold (CT) of amplification detection (Taq polymerase; 18S template, 0.25 ng): 14.38
mean cycle threshold (CT) of amplification detection (Taq polymerase; 18S template, 0.5 ng): 18.89
mean cycle threshold (CT) of amplification detection (Taq polymerase; 18S template, 0.75 ng): 31.20
mean cycle threshold (CT) of amplification detection (Taq polymerase; 18S template, 1 ng): 40.00
mean cycle threshold (CT) of amplification detection (Taq polymerase; 18S template, 1.25 ng): 40.00
mean cycle threshold (CT) of amplification detection (Taq polymerase; Actin B template, 0.08 ng): 18.48
mean cycle threshold (CT) of amplification detection (Taq polymerase; Actin B template, 0.25 ng): 26.89
mean cycle threshold (CT) of amplification detection (Taq polymerase; Actin B template, 0.5 ng): 38.84
mean cycle threshold (CT) of amplification detection (Taq polymerase; Actin B template, 0.75 ng): 40.00
mean cycle threshold (CT) of amplification detection (Taq polymerase; Actin B template, 1 ng): 40.00
mean cycle threshold (CT) of amplification detection (Taq polymerase; Actin B template, 1.25 ng): 40.00
mean cycle threshold (CT) of amplification detection (Taq polymerase; GAPDH template, 0.08 ng): 17.22
mean cycle threshold (CT) of amplification detection (Taq polymerase; GAPDH template, 0.25 ng): 25.13
mean cycle threshold (CT) of amplification detection (Taq polymerase; GAPDH template, 0.5 ng): 40.00
mean cycle threshold (CT) of amplification detection (Taq polymerase; GAPDH template, 0.75 ng): 40.00
mean cycle threshold (CT) of amplification detection (Taq polymerase; GAPDH template, 1 ng): 40.00
mean cycle threshold (CT) of amplification detection (Taq polymerase; GAPDH template, 1.25 ng): 40.00
limit of detection in heparin (Taq polymerase; calculated from 500 pg block and heparin potency 6.25 μg/U): 0.16 % (w/w)
gene amplification (polymerase activity) after treatment with heparinase (Taq polymerase): not
18S amplification (Taq polymerase): significantly reduced
reproduction of the clinical syndrome (adverse events) (porcine model): partially reproduce the clinical syndrome

oversulfated dermatan sulfate [OS-DS]
mean cycle threshold (CT) of amplification detection (Taq polymerase; 18S template, 0.3 ng): 14.13
mean cycle threshold (CT) of amplification detection (Taq polymerase; 18S template, 0.9 ng): 18.29
mean cycle threshold (CT) of amplification detection (Taq polymerase; 18S template, 2.7 ng): 40.00
mean cycle threshold (CT) of amplification detection (Taq polymerase; 18S template, 8.3 ng): 40.00
mean cycle threshold (CT) of amplification detection (Taq polymerase; 18S template, 25 ng): 40.00
mean cycle threshold (CT) of amplification detection (Taq polymerase; Actin B template, 0.3 ng): 25.45
mean cycle threshold (CT) of amplification detection (Taq polymerase; Actin B template, 0.9 ng): 31.85
mean cycle threshold (CT) of amplification detection (Taq polymerase; Actin B template, 2.7 ng): 40.00
mean cycle threshold (CT) of amplification detection (Taq polymerase; Actin B template, 8.3 ng): 40.00
mean cycle threshold (CT) of amplification detection (Taq polymerase; Actin B template, 25 ng): 40.00
mean cycle threshold (CT) of amplification detection (Taq polymerase; GAPDH template, 0.3 ng): 24.76
mean cycle threshold (CT) of amplification detection (Taq polymerase; GAPDH template, 0.9 ng): 39.12
mean cycle threshold (CT) of amplification detection (Taq polymerase; GAPDH template, 2.7 ng): 40.00
mean cycle threshold (CT) of amplification detection (Taq polymerase; GAPDH template, 8.3 ng): 40.00
mean cycle threshold (CT) of amplification detection (Taq polymerase; GAPDH template, 25 ng): 40.00
18S amplification (Taq polymerase): significantly reduced

heparin
amount of heparin whose blocking activity is overcome by heparinase treatment (Taq polymerase; 1 unit of heparinase, 2 hrs at 25° C., 18S (FIG. 1A)): up to 50 mU
gene amplification (polymerase activity) after treatment with heparinase (Taq polymerase): restores gene amplification

Source: US20110165578A1, “METHODS FOR DETECTING AND QUANTIFYING OVERSULFATED GLYCOSAMINOGLYCANS” (priority 2008, published 2011)
